This note sets out measurements from patent US20220380378A1 (ESSA Pharma, Inc., priority 2021, published 2022).

Where only a bound is given, the exact number is not on record here.

For this assay, the target named is T1, androgen receptor (AR) (Homo sapiens, UniProt P10275, T878A).
T1 sequence (P10275 1-920 T878A): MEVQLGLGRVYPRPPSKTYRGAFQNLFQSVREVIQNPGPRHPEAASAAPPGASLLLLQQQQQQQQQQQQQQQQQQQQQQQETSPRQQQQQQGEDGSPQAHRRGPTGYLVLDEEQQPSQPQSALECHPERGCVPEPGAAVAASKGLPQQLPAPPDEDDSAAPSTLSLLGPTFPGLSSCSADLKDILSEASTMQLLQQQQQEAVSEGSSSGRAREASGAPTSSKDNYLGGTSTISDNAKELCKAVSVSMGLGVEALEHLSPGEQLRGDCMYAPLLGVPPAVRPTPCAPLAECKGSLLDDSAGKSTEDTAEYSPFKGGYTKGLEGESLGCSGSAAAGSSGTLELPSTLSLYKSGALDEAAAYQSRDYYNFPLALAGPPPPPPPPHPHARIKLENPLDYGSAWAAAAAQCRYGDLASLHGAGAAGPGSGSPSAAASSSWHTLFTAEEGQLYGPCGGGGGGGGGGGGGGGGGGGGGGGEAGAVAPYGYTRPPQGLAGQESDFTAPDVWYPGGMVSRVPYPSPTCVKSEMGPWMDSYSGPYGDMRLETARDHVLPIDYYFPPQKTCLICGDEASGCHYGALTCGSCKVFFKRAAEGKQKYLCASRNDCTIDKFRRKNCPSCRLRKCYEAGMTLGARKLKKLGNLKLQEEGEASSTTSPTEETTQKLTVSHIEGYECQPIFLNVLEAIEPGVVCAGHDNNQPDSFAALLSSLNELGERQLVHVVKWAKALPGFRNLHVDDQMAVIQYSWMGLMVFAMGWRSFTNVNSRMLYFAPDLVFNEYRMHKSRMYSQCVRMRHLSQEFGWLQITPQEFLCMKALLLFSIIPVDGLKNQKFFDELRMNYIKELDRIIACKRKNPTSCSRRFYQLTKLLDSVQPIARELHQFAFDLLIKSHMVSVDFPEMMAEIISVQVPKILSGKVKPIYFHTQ
The assay is described as follows: Androgen-induced PSA (6.1 kb)-luciferase reporter assay in LNCaP cells (R1881 1 nM). The format is cell-based. On the set-up: endogenous in cells; host or cells: LNCaP. The settings on record: 24 h, read-out: PSA-Luc IC50 Range. A digest of the protocol:
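LNCaP cells transiently transfected with PSA (6.1 kb)-luciferase for 24 h, pretreated 1 h with compound or DMSO, then stimulated with 1 nM R1881 for 24 h. Firefly luciferase in lysates normalized to protein content; IC50 relative to R1881-induced vehicle activity.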
Turning to `CC(C)(c1ccc(-c2cnc3c(c2)CCC(NS(C)(=O)=O)C3)cc1)c1cc(Cl)c(OCCCl)c(C#N)c1` (stereo not shown) [Compound A214], the IC50 lay in the range of 500 to 2000 nM.
As to `CS(=O)(=O)Nc1nccc(COc2ccc(-n3ccc4c(C#N)c(OCCCl)c(Cl)cc43)cc2)n1` [Compound A27], the half-inhibitory concentration (IC50) fell in the range of 500 to 2000 nM.
For `CS(=O)(=O)N1CCC(COc2ccc3c(ccn3-c3cc(Cl)c(OCCCl)c(C#N)c3)c2)CC1` [Compound A55], the IC50 is above 2000 nM.
For the compound `CS(=O)(=O)NC12CC(NCc3ccc4c(ccn4-c4cc(Cl)c(OCCCl)c(C#N)c4)c3)(C1)C2` [Compound A145], the IC50 is 500 to 2000 nM.
To `CC(C)(c1ccc(OCc2ncncc2N)cc1)c1cc(Cl)c(OCCCl)c(C#N)c1` [Compound A98] belongs 500 to 2000 nM.
For `CC(C)(c1ccc(-c2ccc3oc(NS(C)(=O)=O)nc3c2)cc1)c1cc(Cl)c(OCCCl)c(C#N)c1` [Compound A255], the IC50 fell in the range of 500 to 2000 nM.
Consider `CS(=O)(=O)Nc1nccc(COc2ccc3c(ccn3-c3cc(Cl)c(OC4CCC4)c(C#N)c3)c2)n1` [Compound A189], for which the IC50 was 500 to 2000 nM.
Regarding `CS(=O)(=O)Nc1nccc(COc2ccc3c(-c4cc(Cl)c(OCCCl)c(C#N)c4)cnn3c2)n1` [Compound A64], the IC50 was above 2000 nM.
Turning to `Cn1cc(-c2cc(Cl)c(OCCCl)c(C#N)c2)c2ccc(OCc3ccnc(NS(C)(=O)=O)n3)cc21` [Compound A157], the IC50 fell in the range of 500 to 2000 nM.
Turning to `CS(=O)(=O)N1CCC(CCOc2ccc3c(ccn3-c3cc(Cl)c(OCCCl)c(C#N)c3)c2)CC1` [Compound A190], the IC50 was above 2000 nM.
In the case of `CC(C)(c1ccc(OCc2ccnc(NS(C)(=O)=O)n2)cc1)c1cc(Cl)c(N2CCC(CO)CC2)c(C#N)c1` [Compound A90], the IC50 is 500 to 2000 nM.
As for `CS(=O)(=O)N1CCCC1COc1ccc2c(ccn2-c2cc(Cl)c(OCCCl)c(C#N)c2)c1` (stereo not shown) [Compound A201], the IC50 was above 2000 nM.
To `CS(=O)(=O)Nc1ncc(Cn2cc3c(-c4cc(Cl)c(OCCCl)c(C#N)c4)cccc3n2)cn1` [Compound A161] belongs above 2000 nM; to `CC(C)(c1ccc(-c2cnc3c(NS(C)(=O)=O)nccc3n2)cc1)c1cc(Cl)c(OCCCl)c(C#N)c1` [Compound A280], 500 to 2000 nM.
As to `CS(=O)(=O)N1CCO[C@@H](COc2ccc3c(ccn3-c3cc(Cl)c(OCCCl)c(C#N)c3)c2)C1` [Compound A205], the IC50 was above 2000 nM.
As to `CS(=O)(=O)Nc1nccc(COc2ccc(-n3ccc4c(C#N)c(OCCCl)c(C#N)cc43)cc2)n1` [Compound A75], the IC50 was above 2000 nM.
Consider `CS(=O)(=O)Nc1ncc2c(n1)CN(Cc1ccc3c(ccn3-c3cc(Cl)c(OCCCl)c(C#N)c3)c1)CC2` [Compound A153], for which the IC50 is above 2000 nM.
Next, `CS(=O)(=O)NC12CC(COc3ccc4c(c3)CCCC4c3cc(Cl)c(OCCCl)c(C#N)c3)(C1)C2` (stereo not shown) [Compound A247]: above 2000 nM.
`CS(=O)(=O)N1CC2(CCN(Cc3ccc4c(ccn4-c4cc(Cl)c(OCCCl)c(C#N)c4)c3)CC2)C1` [Compound A235]: the IC50 is above 2000 nM.
As to `CC1CN(c2c(F)cc(C(C)(C)c3ccc(OCc4ccnc(NS(C)(=O)=O)n4)cc3)cc2C#N)C1` [Compound A252], the IC50 was 500 to 2000 nM.
As to `CS(=O)(=O)Nc1nccc(COc2ccc(-n3ccc4c(Cl)c(OCCCl)c(C#N)cc43)cc2)n1` [Compound A26], the IC50 is above 2000 nM.
To `CC(NC12CC(NS(C)(=O)=O)(C1)C2)c1ccc2c(ccn2-c2cc(Cl)c(OCCCl)c(C#N)c2)c1` (stereo not shown) [Compound A184] belongs above 2000 nM; to `CS(=O)(=O)N[C@@H]1CC[C@H](Oc2ccc3c(ccn3-c3cc(Cl)c(OCCCl)c(C#N)c3)c2)C1` [Compound A233], 500 to 2000 nM; to `CS(=O)(=O)N1CC2(CC(Oc3ccc4c(ccn4-c4cc(Cl)c(OCCCl)c(C#N)c4)c3)C2)C1` [Compound A163], 500 to 2000 nM.
As to `CS(=O)(=O)Nc1ncc(Cn2ncc3ccc(-c4cc(Cl)c(OCCCl)c(C#N)c4)cc32)cn1` [Compound A143], the IC50 was above 2000 nM.
For `CS(=O)(=O)N[C@H]1C[C@@H](COc2ccc3c(ccn3-c3cc(Cl)c(OCCCl)c(C#N)c3)c2)C1` [Compound A136], the IC50 is 500 to 2000 nM.
As for `CS(=O)(=O)NC12CC(COc3ccc4c(-c5cc(Cl)c(OCCCl)c(C#N)c5)csc4c3)(C1)C2` [Compound A138], the IC50 is above 2000 nM.
Next, `CC(C)(c1ccc(OCc2ccnc(NS(C)(=O)=O)n2)cc1)c1cc(C#N)c2ccc(Cl)cc2c1` [Compound A25]: 500 to 2000 nM; `CC(C)(c1ccc(-c2ccc3c(cnn3S(C)(=O)=O)c2)cc1)c1cc(Cl)c(OCCCl)c(C#N)c1` [Compound A111]: above 2000 nM.
`CC(C)(c1ccc(OCc2cnc(NS(C)(=O)=O)nc2N2CCCCC2)cc1)c1cc(Cl)c(OCCCl)c(C#N)c1` [Compound A99]: the IC50 lay in the range of 500 to 2000 nM.
As to `COCc1c(F)cc(-n2ccc3cc(OCc4ccnc(NS(C)(=O)=O)n4)ccc32)cc1Cl` [Compound A74], the IC50 fell in the range of 500 to 2000 nM.
`Cc1nc(NS(C)(=O)=O)ncc1COc1ccc(C(C)(C)c2cc(Cl)c(OCCCl)c(C#N)c2)cc1` [Compound A91]: the IC50 fell in the range of 500 to 2000 nM.
On to `CC(C)(c1ccc(OCc2cccc(S(N)(=O)=O)c2)cc1)c1cc(Cl)c(OCCCl)c(C#N)c1` [Compound A50], for which the IC50 lay within 500 to 2000 nM.
With `CC(C)(c1ccc(OCc2ccnc(NS(C)(=O)=O)n2)cc1)c1cc(Cl)c(N2CCOCC2)c(C#N)c1` [Compound A283], the IC50 was in the range of 500 to 2000 nM.
Consider `CC(C)(c1ccc(-c2ccc3ncncc3c2)cc1)c1cc(Cl)c(OCCCl)c(C#N)c1` [Compound A110], for which the IC50 was above 2000 nM.
In the case of `Cc1cc2cc(OCC34CC(NS(C)(=O)=O)(C3)C4)ccc2n1-c1cc(Cl)c(OCCCl)c(C#N)c1` [Compound A139], the IC50 is above 2000 nM.
As for `CS(=O)(=O)NCc1ccc(-c2ccc3c(ccn3-c3cc(Cl)c(OCCCl)c(C#N)c3)c2)cc1` [Compound A164], the IC50 was above 2000 nM.
With `CC(C)(c1ccc(-c2ccc3c(NS(C)(=O)=O)nccc3n2)cc1)c1cc(Cl)c(OCCCl)c(C#N)c1` [Compound A278], the IC50 lay in the range of 500 to 2000 nM.
Next, `CS(=O)(=O)N1CCN(CCOc2ccc3c(ccn3-c3cc(Cl)c(OCCCl)c(C#N)c3)c2)CC1` [Compound A206]: 500 to 2000 nM.
To `CS(=O)(=O)Nc1ncc2cc(-c3ccc4c(ccn4-c4cc(Cl)c(OCCCl)c(C#N)c4)c3)ccc2n1` [Compound A122] belongs above 2000 nM.
With `CS(=O)(=O)Nc1nccc(COc2ccc3c(cnn3-c3cc(Cl)c(OCCCl)c(C#N)c3)c2)n1` [Compound A60], the 50% inhibitory concentration (IC50) is above 2000 nM.
Take `CC1(NS(C)(=O)=O)CN(CCc2ccc3c(ccn3-c3cc(Cl)c(OCCCl)c(C#N)c3)c2)C1` [Compound A244]: the IC50 was above 2000 nM.
Take `CC(C)(c1ccc(-c2ccc3nc(NS(C)(=O)=O)nc(N4CCOCC4)c3c2)cc1)c1cc(Cl)c(OCCCl)c(C#N)c1` [Compound A196]: the IC50 lay within 500 to 2000 nM.
`CC(C)(c1ccc(OCc2ccnc(NS(C)(=O)=O)n2)cc1)c1cc(F)c(N2CCCCC2)c(C#N)c1` [Compound A261]: the IC50 is 500 to 2000 nM.
For the compound `CC(CO)(c1ccc(OCc2ccnc(NS(C)(=O)=O)n2)cc1)c1cc(Cl)c(OCCCl)c(C#N)c1` (stereo not shown) [Compound A89], the IC50 was above 2000 nM.
For the compound `CC(C)(c1ccc(-c2ccc3oc(NS(C)(=O)=O)nc3n2)cc1)c1cc(Cl)c(OCCCl)c(C#N)c1` [Compound A281], the IC50 was above 2000 nM.

One may read the IC50 as the point on the concentration scale where inhibition reaches its midpoint.
